Source: ChEMBL document CHEMBL1121861, “Mammalian metabolism of phencyclidine” (J Med Chem, 1981)

Assays:
Canis familiaris = organism: Canis familiaris; assay: Compound was evaluated for the mean locomotor activity ([…]) by the difference in the counts between postinjection and preinjection activities.; type: functional, Canis lupus familiaris
[1] = Half-life determined in the urine of monkey; type: ADME; details: simiiformes
[2] = Half-life determined in the urine of dog; type: ADME, organism-based, Canis lupus familiaris

SMILES	Activity (Canis familiaris)	half-life [1] [h]	half-life [2] [h]
Cl.O=C(O)CCCCNC1(c2ccccc2)CCCCC1	-1063		
COC(=O)CCCCNC1(c2ccccc2)CCCCC1.Cl	-1418		
Cl.O=C(O)CCCCNC1(c2ccccc2)CCCCC1.c1ccc(C2(N3CCCCC3)CCCCC2)cc1	2478		
COC(=O)CCCCNC1(c2ccccc2)CCCCC1.Cl.c1ccc(C2(N3CCCCC3)CCCCC2)cc1	2388		
Cl.c1ccc(C2(N3CCCCC3)CCCCC2)cc1 [PHENCYCLIDINE HYDROCHLORIDE]	3062	2.36	2.86
